Where “and” joins values, the source holds several entries; their conditions need not be identical. Identical values can stand only once. Like-named read-outs stand apart in the source and are kept apart here.
What was measured:
[1] = target: T1, M1 muscarinic receptor (Homo sapiens, UniProt P11229); type: binding
T1 construct: expressed in transfected cells; host or cells: CHO cells
T1 sequence (P11229 1-460): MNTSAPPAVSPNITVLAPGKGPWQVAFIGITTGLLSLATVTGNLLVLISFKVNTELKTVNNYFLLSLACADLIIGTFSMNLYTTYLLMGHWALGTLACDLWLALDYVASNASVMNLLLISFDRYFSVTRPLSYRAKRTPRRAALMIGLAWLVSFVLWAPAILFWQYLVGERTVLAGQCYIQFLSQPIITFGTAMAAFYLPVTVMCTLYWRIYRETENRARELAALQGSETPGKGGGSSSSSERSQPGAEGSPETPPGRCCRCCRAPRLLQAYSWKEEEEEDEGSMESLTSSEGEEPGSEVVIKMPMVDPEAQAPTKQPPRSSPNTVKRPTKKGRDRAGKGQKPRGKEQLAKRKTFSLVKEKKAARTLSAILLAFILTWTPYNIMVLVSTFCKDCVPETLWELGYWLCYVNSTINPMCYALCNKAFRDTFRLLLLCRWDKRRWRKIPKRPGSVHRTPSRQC
Method: (§1) CHO cells were grown to confluence in 75 cm^2 flasks in Dulbecco’s modified Eagle’s medium (DMEM) supplemented with 10% fetal bovine serum. Two million cells were subcultured in 100 mm Petri dishes. The medium was supplemented with 5 mM sodium butyrate for the last 24 h of cultivation to increase receptor expression. Cells were washed with phosphate-buffered saline and manually harvested on day 5 after subculture and centrifuged for 3 min at 250 × g. The pellet was suspended in 10 ml of ice-cold homogenization medium (100 mM NaCl, 20 mM Na-HEPES, 10 mM EDTA, pH = 7.4) and homogenized on ice by two 30 s strokes using a Polytron homogenizer (Ultra-Turrax; Janke & Kunkel GmbH & Co. KG, IKA-Labortechnik, Staufen, Germany) with a 30-s pause between strokes. Cell homogenates were centrifuged for 5 min at 1,000 × g. The supernatant was collected and centrifuged for 30 min at 30,000 × g. Pellets were suspended in the washing medium (100 mM, 10 mM MgCl2, 20 mM Na-HEPES, pH = 7.4), left for 30 min at 4 °C, and then centrifuged again for 30 min at 30,000 × g. Resulting membrane pellets were kept at -80 °C until assayed.
All radioligand binding experiments were optimized and carried out according to general guidelines. […] Agonist binding was determined in competition experiments with 1 nM [^3H]NMS. Nonspecific binding was determined in the presence of 10 μM atropine. Incubation was terminated by filtration through Whatman GF/C glass fibre filters (Whatman) using a Brandel harvester (Brandel, USA). […] The filters were cooled and counted in a Wallac Microbeta scintillation counter (Wallac, Finland).
Data from experiments were processed in Libre Office and then analysed and plotted using program Grace (https://plasma-gate.weizmann.ac.il/Grace). […] Inhibition constant KI was calculated as:28 KI=IC50/1+D/KD where [D] is the concentration of radioligand used and KD is its equilibrium dissociation constant.
Interaction between tracer ([^3H]NMS) and allosteric modulator:29 y=D+KD/D+KDKB+x/KB+xα where y is specific radioligand binding at concentration x of the allosteric modulator as per cent of binding in the absence of allosteric modulator. Where [D] and KD are concentration and equilibrium dissociation constant of the tracer ([^3H]NMS). The equilibrium dissociation constant of the allosteric modulator KB and factor of binding cooperativity α are obtained by fitting of Eq. (29) to data.
Interaction between tracer ([^3H]NMS) and allosteric modulator in the presence of an agonist at fixed concentration:30 y=D+KD/D+KDAKB+Bα2+KAKB+B/KAKB+Bα1 where y is specific radioligand binding at concentration x of the allosteric modulator as per cent of binding in the absence of allosteric modulator. Where [D] and KD are concentration and equilibrium dissociation constant of the tracer ([^3H]NMS), [A] and KA are concentration and equilibrium dissociation constant of the agonist. Parameters KB and α1 obtained by fitting of Eq. (29) to binding data in the absence of the agonist.31 Concentration-responsecurvey=basal+EMAX′-basal∗x^nH/x^nH+EC50nH where y is response normalized to basal activity in the absence of allosteric ligand at concentration x, E'MAX is the apparent maximal response, EC50 is concentration causing half-maximal effect, and nH is Hill coefficient.

[2] = target: T1, M1 muscarinic receptor; type: cell-based; details: for τA / EMAX: Table S3B, global fit; for τA: EMAX as shared parameter; for EMAX: EMAX estimated as shared parameter of all 4 curves; for α (factor of binding cooperativity) / β (factor of operational cooperativity): functional, global fit of Eq. (14)
Method: as §1
Accumulation of inositol phosphates (IPX) was assayed in cells in suspension. IPX was determined after separation on ion-exchange columns (Dowex 1X8-200, Sigma, USA). Cells were harvested by mild trypsinization and resuspended in KHB and centrifuged 250 g for 3 min. Cells were resuspended in KHB supplemented with 500 nM [^3H]myo-inositol (ARC, USA) and incubated at 37 °C for 1 h. Then they were washed once with an excess of KHB, resuspended in KHB containing 10 mM LiCl, and incubated for 1 h at 37 °C in the presence of indicated concentrations of agonists and/or allosteric modulator. Incubation was terminated by the addition of 0.5 ml of stopping solution (chloroform: methanol: HCl; 2: 1: 0.1) and placed in 4 °C for 1 h. An aliquot (0.6 ml) of the upper (aqueous) phase was taken and loaded onto ion-exchange columns. Columns were washed with 10 ml of deionized water and 20 ml of 60 mM ammonium formate/5 mM sodium borate solution. IPX were collectively eluted from columns by 4 ml of 1 M ammonium formate-0.1 M/formic acid buffer.
Where [D] and KD are concentration and equilibrium dissociation constant of the tracer ([^3H]NMS), [A] and KA are concentration and equilibrium dissociation constant of the agonist. Parameters KB and α1 obtained by fitting of Eq. (29) to binding data in the absence of the agonist.31 Concentration-responsecurvey=basal+EMAX′-basal∗x^nH/x^nH+EC50nH where y is response normalized to basal activity in the absence of allosteric ligand at concentration x, E'MAX is the apparent maximal response, EC50 is concentration causing half-maximal effect, and nH is Hill coefficient.

## C[N+](C)(C)CC#CCOC1=NOCC1 [iperoxo]
[1]; Eq. (27)
  flow (fraction of low-affinity sites): 51 ± 5%
[1]; competition with [3H]NMS, high-affinity sites
  high-affinity binding (candidate KA): 200 pM
[1]; high-affinity sites, 1 nM [3H]NMS, Eq. (27)
  pIC50high: 8.99 ± 0.05
[1]; high-affinity sites, 1 nM [3H]NMS, calculated from IC50 by Eq. (28)
  pKIhigh: 9.70 ± 0.05
[1]; low-affinity sites, 1 nM [3H]NMS, Eq. (27)
  pIC50low: 5.96 ± 0.04
[1]; low-affinity sites, 1 nM [3H]NMS, calculated from IC50 by Eq. (28)
  pKIlow: 6.66 ± 0.04
[2]
  τA: 1.97 ± 708
  EMAX: 98 ± 53
[2]; agonist alone
  basal: 1 fold-over basal
[2]; functional experiments
  efficacy ranking: greater efficacy than carbachol
[2]; ligand alone, Eq. (31)
  E’MAX (apparent maximal response): 64.7 ± 0.5 fold-over basal
  nH (slope): 1.04 ± 0.02
  pEC50: 9.42 ± 0.01
[2]; ligand alone, Eq. […]
  operational efficacy τ (τA / τB): 1.86 ± 0.04
  pKA / pKB (functional): 8.96 ± 0.02

## Cc1ccccc1CN1CCC(N2CCC(n3c(=O)[nH]c4ccccc43)CC2)CC1 [TBPB, 3-[1-[1-[(2-methylphenyl)methyl]piperidin-4-yl]piperidin-4-yl]-1H-benzimidazol-2-one]
[1]; Eq. (29)
  αNMS (factor of binding cooperativity with NMS): 0.002 ± 0.001
[1]; allosteric ligand alone
  inhibition of [3H]NMS binding: completely inhibited
[1]; binding experiments, Eq. (30)
  αcarbachol (factor of binding cooperativity with carbachol): 0.7 ± 0.3
  αiperoxo (factor of binding cooperativity with iperoxo): 0.8 ± 0.4
[1]; fit of Eq. (29), TBPB estimate with high uncertainty
  decrease in affinity of [3H]NMS: 500 fold
[1]; fit of Eq. (30), high degree of uncertainty
  binding cooperativity with carbachol and iperoxo: slightly negative
[2]
  E’MAX: 56.0 ± 2.2 and 57.8 ± 3.3 and 57.9 ± 1.4
  E′MAX of response compared with carbachol: close to E′MAX of full agonist carbachol
  basal: 52.7 and 53.2 and 51.3
  effect on EC′50 of carbachol and iperoxo: increased EC′50 values
  nH: 1.15 ± 0.18 and 1.18 ± 0.20 and 0.85 ± 0.15
  τA: 1.26 ± 334
  EMAX: 98 ± 53
[2]; Figs. 14 and 15 vs Fig. 12
  binding cooperativity α in functional experiments compared with binding experiments: about twice stronger
[2]; fixed concentrations of allosteric ligand
  effect on E′MAX of carbachol and iperoxo: decreased E′MAX values
[2]; with carbachol
  α (factor of binding cooperativity): 0.48 ± 0.05
  β (factor of operational cooperativity): 0.80 ± 0.05
[2]; with iperoxo
  α (factor of binding cooperativity): 0.51 ± 0.08
  β (factor of operational cooperativity): 0.78 ± 0.08
[2]; iperoxo + 1 µM TBPB
  E’MAX: 59.7 ± 3.9 fold-over basal
  basal: 51.3 fold-over basal
  nH: 1.18 ± 0.20
[2]; iperoxo + 3 µM TBPB
  E’MAX: 58.0 ± 4.8 fold-over basal
  basal: 52.7 fold-over basal
  nH: 0.82 ± 0.20
[2]; iperoxo + 10 µM TBPB
  E’MAX: 57.6 ± 2.9 fold-over basal
  basal: 53.2 fold-over basal
  nH: 1.19 ± 0.22
[2]; ligand alone, Eq. (31)
  E’MAX (apparent maximal response): 54.4 ± 0.9 fold-over basal
  nH (slope): 1.01 ± 0.08
[2]; with both carbachol and iperoxo, indicated by E′MAX change
  operational cooperativity β: < 1
